Counter-ions that a name gives are not always drawn.
Columns and labels:
[1] = system: bacteria; test: Minimum inhibitory concentration (MIC) assay, bacteria; assay type: cell-based
Procedure: (§1) The assays described below were used to measure the minimum inhibitory concentration (MIC) of a compound necessary to inhibit visible growth of the organism tested. These assays are adapted from NCCLS protocols M7-A4 and M27-A (NCCLS vol 17:9 and vol 17:2) as modified by Sandven, S., Clin. Micro. (1999) 37:12, p. 3856–3859. MIC values for Aspergillus species were determined using NCCLS protocol M38-P.
(§2) All compounds were dissolved in 100% DMSO to a stock concentration of 10 mM and used fresh stock compounds in powder form were kept frozen until needed and used freshly. When used for test purposes, compounds were diluted in the appropriate media depending on the organism being tested.
(§3) For yeast and aspergillus species, seven 1:2 serial dilutions of compound in appropriate media buffered with MOPS at pH 7.0 were prepared such that the final starting test compound concentrations were 44.4 μM for yeast and 50 μM aspergillus species. For bacteria, dilutions were made in growth media used for the particular bacteria being tested.
Five well-separated colonies from a 24 h Sabouraud Dextrose plate incubated at 35° C. were picked and resuspended into 2 mL of normal saline. The O.D.530 was read and the culture was adjusted to 0.5 McFarland units with normal saline. A 1:2000 dilution was made with RPMI 1640 media buffered with MOPS at pH 7.0 and 100 μL of this inoculum preparation was added to an equal volume of test compound-containing media. 25 μL of the redox indicator Alamar Blue (Biosource International) was added to each well and the plates were incubated for 48 h at 35° C. Wells having yeast growth changed color from blue to pink.
Inoculums are made in the same manner as yeast except all dilutions are made in normal saline, with a final dilution of 1:200 and an inoculum of 10 μL.

[2] = system: Aspergillus species; test: Minimum inhibitory concentration (MIC) assay, filamentous fungi; assay type: cell-based; details: antifungal activity, lowest concentration at which 75% inhibition of growth is observed after 48 h
Procedure: as §1, §2, §3
Inoculums are made by incubating Aspergillus species for 7 days at 35° C. on potato dextrose agar slants. Slants are then covered with 1.0 mL of 0.85% saline, one drop of Tween 20 is added and colonies are teased with a sterile transfer loop to create a suspension which is allowed to sit for 5 min so heavier particles can drop out. The upper suspension is separated and adjusted to an optical density of 0.09 to 0.11. The resulting suspension is diluted 1:50, which yields 2× the final inoculum needed. Micro dilution trays are prepared as with yeast and incubated for 48 h at 35° C. For our purposes the MIC is defined as the lowest compound concentration at which 75% inhibition of growth is observed after 48 h.

Compound | MIC [1] [µM] | MIC [2] [µM]
O=C(NCCNC1=NCCN1)c1ccc2[nH]c(C(=O)Nc3ccc4[nH]c(C(=O)NCCNC5=NCCN5)cc4c3)cc2c1 [Compound 57, 1H-In dole-2,5-dicarboxylic acid 5-{[2-(4,5-dihydro-1H-imidazol-2-ylamino)ethyl]amide} 2-({2-[2-(4,5-dihydro-1H-imidazol-2-ylamino)ethylcarbamoyl]-1H-indole-5-yl}amide)dihydrochloride] | ≤ 45.5 | ≤ 50
N=C(N)NCCCNC(=O)c1ccc2[nH]c(C(=O)Nc3ccc4[nH]c(C(=O)NCCNC(=N)N)cc4c3)cc2c1 [Compound 58, 1H-Indole-2,5-dicarboxylic acid 2-{[2-(2-guanidinoethylcarbamoyl)-1H-indol-5-yl]amide} 5-[(3-guanidinopropyl)amide]dihydrochloride] | ≤ 45.5 | ≤ 50
C/N=C(\N)NCCCNC(=O)c1ccc2[nH]c(C(=O)Nc3ccc4[nH]c(C(=O)NCCN/C(N)=N/C)cc4c3)cc2c1 [Compound 59, 1H-Indole-2,5-dicarboxylic acid 2-({2-[2-(N′methylguanidino)ethylcarbamoyl]-1H-indol-5-yl}amide) 5-{[3-(N′methylguanidino)propyl]amide}hydrochloride] | ≤ 45.5 | ≤ 50
C/N=C(\NC)NCCCNC(=O)c1ccc2[nH]c(C(=O)Nc3ccc4[nH]c(C(=O)NCCN/C(=N/C)NC)cc4c3)cc2c1 [Compound 60, 1H-Indole-2,5-dicarboxylic acid 2-({2-[2-(N′,N″-dimethylguanidino)ethylcarbamoyl]-1H-indol-5-yl}amide) 5-{[3-(N′,N″-dimethylguanidino)propyl]amide}hydrochloride] | ≤ 45.5 | ≤ 50
N=C(N)CCNC(=O)c1cc2cc(NC(=O)c3cc4cc(C(=O)NCCNC(=N)N)ccc4[nH]3)ccc2[nH]1 [Compound 61, 1H-Indole-2,5-dicarboxylic acid 2-{[2-(2-carbamimidoylethylcarbamoyl)-1H-indol-5-yl]amide} 5-[(2-guanidinoethyl)amide]dihydrochloride] | ≤ 45.5 | ≤ 50
N=C(N)NCCCNC(=O)c1cc2ccc(NC(=O)c3cc4cc(C(=O)NCCNC(=N)N)ccc4[nH]3)cc2[nH]1 [Compound 62, 1H-Indole-2,5-dicarboxylic acid 5-[(2-guanidino-ethyl)-amide] 2-{[2-(3-guanidino-propylcarbamoyl)-1H-indol-6-yl]-amide}] | ≤ 45.5 | ≤ 50
CNC(=N)NCCCNC(=O)c1cc2ccc(NC(=O)c3cc4cc(C(=O)NCCNC(=N)NC)ccc4[nH]3)cc2[nH]1 [Compound 63, 1H-Indole-2,5-dicarboxylic acid 5-{[2-(N′-methyl-guanidino)-ethyl]-amide} 2-({2-[3-(N′-methyl-guanidino)-propylcarbamoyl]-1H-indol-6-yl}-amide)] | ≤ 45.5 | ≤ 50
C/N=C(\NC)NCCCNC(=O)c1cc2ccc(NC(=O)c3cc4cc(C(=O)NCCN/C(=N/C)NC)ccc4[nH]3)cc2[nH]1 [Compound 64] | ≤ 45.5 | ≤ 50
N=C(N)NCCCNC(=O)c1cc2cc(NC(=O)c3cc4cc(C(=O)NCCNC(=N)N)ccc4[nH]3)ccc2[nH]1 [Compound 67, 1H-Indole-2,5-dicarboxylic acid 5-[(2-guanidino-ethyl)-amide] 2-{[2-(3-guanidino-propylcarbamoyl)-1H-indol-5-yl]-amide}] | ≤ 45.5 | ≤ 50
C/N=C(\N)NCCCNC(=O)c1cc2cc(NC(=O)c3cc4cc(C(=O)NCCNC(=N)NC)ccc4[nH]3)ccc2[nH]1 [Compound 68, 1H-Indole-2,5-dicarboxylic acid 5-{[2-(N′-methyl-guanidino)-ethyl]-amide} 2-({2-[3-(N′-methyl-guanidino)-propylcarbamoyl]-1H-indol-5-yl}-amide)] | ≤ 45.5 | ≤ 50
C/N=C(\NC)NCCCNC(=O)c1cc2cc(NC(=O)c3cc4cc(C(=O)NCCN/C(=N/C)NC)ccc4[nH]3)ccc2[nH]1 [Compound 69, 1H-Indole-2,5-dicarboxylic acid 2-{[2-(N′,N″-dimethyl-guanidino)-ethyl]-amide} 5-({2-[3-(7N′,N″-dimethyl-guanidino)-propylcarbamoyl]-1H-indol-5-yl}-amide)] | ≤ 45.5 | ≤ 50
N=C(N)NCCCNC(=O)c1ccc2[nH]c(C(=O)Nc3ccc4cc(C(=O)NCCCNC(=N)N)[nH]c4c3)cc2c1 [Compound 72, 1H-Indole-2,5-dicarboxylic acid 5-[(3-guanidino-propyl)-amide] 2-{[2-(3-guanidino-propylcarbamoyl)-1H-indol-6-yl-]-amide}] | ≤ 45.5 | ≤ 50
CNC(=N)NCCCNC(=O)c1ccc2[nH]c(C(=O)Nc3ccc4cc(C(=O)NCCCNC(=N)NC)[nH]c4c3)cc2c1 [Compound 73, 1H-Indole-2,5-dicarboxylic acid 5-[(3-(N′-methyl-guanidino)-propyl)-amide] 2-{[2-(3-(N′-methyl-guanidino)-propylcarbamoyl)-1H-indol-6-yl-]-amide}] | ≤ 45.5 | ≤ 50
C/N=C(\NC)NCCCNC(=O)c1ccc2[nH]c(C(=O)Nc3ccc4cc(C(=O)NCCCN/C(=N/C)NC)[nH]c4c3)cc2c1 [Compound 74, 1H-Indole-2,5-dicarboxylic acid 5-[(3-(N N′,N″-dimethyl-guanidino)-propyl)-amide] 2-{[2-(3-(N′,N″-dimethyl-guanidino)-propylcarbamoyl)-1H-indol-6-yl-]-amide}] | ≤ 45.5 | ≤ 50
N=C(N)NCCCNC(=O)c1ccc2[nH]c(C(=O)Nc3ccc4[nH]c(C(=O)NCCCNC(=N)N)cc4c3)cc2c1 [Compound 75, 1H-Indole-2,5-dicarboxylic acid 5-[(3-guanidino-propyl)-amide] 2-{[2-(3-guanidino-propylcarbamoyl)-1H-indol-5-yl-]-amide}] | ≤ 45.5 | ≤ 50
CNC(=N)NCCCNC(=O)c1ccc2[nH]c(C(=O)Nc3ccc4[nH]c(C(=O)NCCCNC(=N)NC)cc4c3)cc2c1 [Compound 76, 1H-Indole-2,5-dicarboxylic acid S-[(3-(N′-methyl-guanidino)-propyl)-amide] 2-[[2-(3-(N′-methyl-guanidino)-propylcarbamoyl)-1H-indol-5-yl-]-amide)] | ≤ 45.5 | ≤ 50
C/N=C(\NC)NCCCNC(=O)c1ccc2[nH]c(C(=O)Nc3ccc4[nH]c(C(=O)NCCCN/C(=N/C)NC)cc4c3)cc2c1 [Compound 77, 1H-Indole-2,5-dicarboxylic acid 5-[(3-(N′,N″-dimethyl-guanidino)-propyl)-amide] 2-{[2-(3-(N′,N″-dimethyl-guanidino)-propylcarbamoyl)-1H-indol-5-yl-]-amide}] | ≤ 45.5 | ≤ 50
CC(C)Cn1cc(NC(=O)c2cc3cc(C(=O)NCCNC(=N)N)ccc3[nH]2)cc1C(=O)NCCNC(=N)N [Compound 80, 1H-Indole-2,5-dicarboxylic acid 5-[(2-guanidino-ethyl)-amide] 2-{[5-(2-guanidino-ethylcarbamoyl)-1-isobutyl-1H-pyrrol-3-yl]-amide)] | ≤ 45.5 | ≤ 50
CNC(=N)NCCNC(=O)c1ccc2[nH]c(C(=O)Nc3cc(C(=O)NCCNC(=N)NC)n(CC(C)C)c3)cc2c1 [Compound 81, 1H-Indole-2,5-dicarboxylic acid 2-({1−isobutyl-5-[2-(N′-methyl-guanidino)-ethylcarbamoyl]-1H-pyrrol-3-yl}amide) 5-{[2-(N′-methyl-guanidino)-ethyl]-amide}] | ≤ 45.5 | ≤ 50
N=C(N)NCCNC(=O)c1ccc2[nH]c(C(=O)Nc3ccc4[nH]c(C(=O)NCCNC(=N)N)cc4c3)cc2c1 [Compound 82, 1H-Indole-2,5-dicarboxylic acid 5-[(2-guanidino-ethyl)-amide] 2-{[2-(2-guanidino-ethylcarbamoyl)-1H-indol-5-yl]-amide}] | ≤ 45.5 | ≤ 50
CC(=N)NCCNC(=O)c1ccc2[nH]c(C(=O)Nc3ccc4[nH]c(C(=O)NCCNC(C)=N)cc4c3)cc2c1 [Compound 89] | ≤ 45.5 | ≤ 50
CC/N=C(\NC)NCCNC(=O)c1ccc2[nH]c(C(=O)Nc3ccc4[nH]c(C(=O)NCCN/C(=N/CC)NC)cc4c3)cc2c1 [Compound 91, 1H-Indole-2,5-dicarboxylic acid 2-{[2-(N′-ethyl-N′-methylguanidino)ethyl]amide} 5-({2-[2-(N′-ethyl-N″-methylguanidino)ethylcarbamoyl]-1H-indol-5-yl}amide), dihydrochloride] | ≤ 45.5 | ≤ 50

Reference: patent US7141680B2, “Aromatic compounds possessing antifungal or antibacterial activity” (Genelabs Technologies, Inc., priority 2002, dated 2006)
